In the assay the target is Thromboxane A2 receptor (Cavia porcellus). As to the kind of experiment: Compound was evaluated for its ability to inhibit specific binding of [3H]U-46619 to Thromboxane A2/ Prostaglandin H2 receptor in guinea pig platelet membrane.

As usually defined, the IC50 is the midpoint of a concentration-inhibition curve.

Regarding `Cc1c(C)c(O)c(C(=CCCCCC(=O)O)c2ccc(F)cc2)c(C)c1O`, the IC50 stood at 1.4 µM. In the case of `Cc1c(C)c(C(CCCCCC(=O)O)c2ccc(F)cc2)c(O)c(C)c1C=O` (configuration not stated) it was 0.03 µM.

Source of the values: BindingDB's records for doi:10.1021/jm00090a009 (Takeda Chemical Industries, 1992).
